The results in this text go back to patent publication US20140322151A1, “Use Of Isosorbide Caprylates/Caprates In Deodorants And Antiperspirants” (CLARIANT INTERNATIONAL LTD, priority 2011, published 2014).

The subject of this experiment is axillary body odor. Put plainly: 48-hour sniff test: reduction in body odor after single application of roll-on deodorant base formulation. It is filed as in vivo, human. The settings on record: base formulation I. The procedure: To determine the reduction in body odor, the following base formulations for roll-on deodorants were used.
Various substances active against body odor were incorporated into the base formulations, for example as a further constituent of component D. These were the following substances:
To determine the reduction in body odor, the deodorizing action was carried out in the 48-hour sniff test, for which the procedure is as follows:
20 subjects are selected according to the following criteria: • female and male • at least 18 years old • nonsmokers • clinically healthy • readily detectable auxiliary body odor under both armpits
The two armpits of the subjects are preconditioned over several days, i.e. no kind of antiperspirants and deodorants are used and a pH-skin-neutral, unperfumed liquid soap is used.
On the 20 pretreated subjects, in the left or right axilla, after a sing application of 250-300 mg of the base formulation comprising active substances against body odor in the component D, three olfactory experts evaluate the axillary body odor and product scent as to intensity before and after treatment over a total of 48 hours.
The opposite axilla is not treated and serves as a standard for determining the relative intensity decrease in axillary body odor compared to the axilla which has been treated with the base formulation comprising active substances against body odor in component D.
As well as the starting value directly before the single application (after 0 hours) and the end value 48 hours after the single application, the intensity of the axillary body odor and product scent is also evaluated after 24 hours. The intensity of the body odor or perfume scent was assessed by the three olfactory experts according to the following scale: • 1=not detectable • 2=slightly detectable • 3=detectable • 4=strongly detectable • 5=very strongly detectable
Comparing the intensities of the body odor (or perfume scent) from the treated axilla and the untreated axilla gives, by virtue of the formula below, the relative intensity decrease in axillary body odor as a result of a single application of 250-300 mg of the base formulation comprising active substances against body odor in component D.

For the compound `Cc1cc(CC(C)CC(C)(C)C)n(O)c(=O)c1` (stereo not shown) [Piroctonol], the “Result after 24 hours (relative intensity decrease in axillary body odor)” value (24 hours, 0.1% by weight, 5% by weight propylene glycol as solubilizer) was found to be 15%. For the same compound, the “Result after 48 hours (relative intensity decrease in axillary body odor)” value (48 hours, 0.1% by weight, 5% by weight propylene glycol as solubilizer) turned out to be 10%.

Turning to `CCCCCCC(O)CO` (stereo not shown) [octanediol], the “Result after 24 hours (relative intensity decrease in axillary body odor)” value (24 hours after single application, 7.6% by weight) is given as 18%. In addition, the “Result after 48 hours (relative intensity decrease in axillary body odor)” value (48 hours after single application, 7.6% by weight) was found to be 13%.
